Marks after values point to notes of the source that are not given here. Residues, ends and D or L forms follow the SMILES beside them.
Legend:
[1] = test system: human dermal fibroblast cells; test: Secreted hyaluronic acid (HA) in media of human dermal fibroblasts (HA Elisa kit); format: cell-based; details: 48 h, percent change relative to vehicle control
Method: (§1) Human dermal fibroblast cells were grown in a 96 well plate in DMEM media (available from Corning, N.Y.) supplemented with 10% Fetal Bovine Serum (FBS) and L-glutamine (0.07×10^5 cells/plate). After reaching about 75% confluence, cells were transferred into DMEM media without FBS and incubated for 4-6 hours. Next, cells were treated with peptides of Formulas I-V at 0.00001%, 0.0001%, 0.001% final concentration in DMEM media without FBS for 48 h. After treatment the media were collected, and cell viability was measured using MTT. The amount of secreted collagen was tested in the media using HTRF human pro-collagen I kit (Cisbio Inc, Bedford, Mass.). The amount of secreted Hyaluronic Acid (HA) was tested in the media using HA Elisa kit (available from Corgenix, Broomfield, Colo.).
(§2) Results are summarized in Table 1 below as percent change of pro-collagen I and HA production relative to vehicle control: […]

[2] = test system: human dermal fibroblast cells; test: Secreted pro-collagen I in media of human dermal fibroblasts (HTRF human pro-collagen I kit); format: cell-based; details: 48 h, percent change relative to vehicle control
Method: as §1, §2

SMILES | Increase in HA Production ([1]; peptide concentration 0.001%) | Increase in Pro-Collagen I Production ([2]; peptide concentration 0.001%) | Increase in HA Production ([1]; peptide concentration 0.0001%) | Increase in Pro-Collagen I Production ([2]; peptide concentration 0.00001%)
CC(C)CC(N)C(=O)NC(CCCNC(=N)N)C(=O)NC(CC(C)C)C(=O)NC(CCCCN)C(=O)O (stereo not drawn) [LRLK (SEQ ID NO: 1), Leu-Arg-Leu-Lys] (H-LRLK-OH; configuration not given here) | +20-50% |  |  | 
CCC(C)C(N)C(=O)NC(Cc1ccccc1)C(=O)NCC(=O)NCC(=O)NC(C(=O)NC(C(=O)NC(Cc1ccc(O)cc1)C(=O)NC(CCCNC(=N)N)C(=O)NC(CO)C(=O)O)C(C)C)C(C)O (stereo not drawn) [IFGGTVYRS (SEQ ID NO: 4), Ile-Phe-Gly-Gly-Thr-Val-Tyr-Arg-Ser] (H-IFGGTVYRS-OH; configuration not given here) | +50-90% | +10-30% |  | 
CSCCC(N)C(=O)NC(C(=O)NC(C(=O)O)C(C)C)C(C)C (stereo not drawn) [MVV (SEQ ID NO: 2), Met-Val-Val] (H-Met-Val-Val-OH; configuration not given here) |  |  | +20-50% | 
CCC(C)C(NC(=O)C(CCCCN)NC(=O)C(NC(=O)C(NC(=O)C(N)CCCNC(=N)N)C(C)O)C1CCCN1)C(=O)NC(CO)C(=O)NC(CCCCN)C(=O)NC(C(=O)NC(C(=O)NC(CCCCN)C(=O)NC(Cc1ccccc1)C(=O)NC(CCC(=O)O)C(=O)NC(CC(C)C)C(=O)NC(CO)C(=O)NCC(=O)O)C(C)CC)C1CCCN1 (stereo not drawn) [RTPKISKPIKFELSG (SEQ ID NO: 5), Arg-Thr-Pro-Lys-Ile-Ser-Lys-Pro-Ile-Lys-Phe-Glu-Leu-Ser-Gly] | +20-50% |  |  | 
CC(NC(=O)CNC(=O)C(CC(=O)O)NC(=O)C(CCCCN)NC(=O)C(C)NC(=O)C(N)C(C)O)C(=O)NC(C(=O)O)C1CCCN1 (stereo not drawn) [TAKDGAP (SEQ ID NO: 3), Thr-Ala-Lys-Asp-Gly-Ala-Pro] | +50-90% |  |  | +10-30%**
